The values that follow come from US6214834A, “Integrin inhibitor prodrugs” (Dupont Pharmaceuticals Company, priority 1998, dated 2001).

“And” between values parts separate entries of the source, which are not always exact repeats. Identical values can stand only once. Like-named read-outs stand apart in the source and are kept apart here.

Data set [1] in a line: Surface tension measurements (DuNouy tensiometer). In kind it is physicochemical. The following applies: for Surface Tension: pH ~4, 22° C. As to the method:
Surface activity behavior of the two prodrugs, SM192 and SD209 was examined using tensiometry. Stock solutions of each were prepared at a concentration of 0.06 M in water and dilutions were made using an aqueous solution of the corresponding salt counterion of the prodrug adjusted to a pH ~4. Surface tension measurements were run at 22° C. on a DuNouy tensiometer. Three measurements were run on each solution concentration.

Data set [2] is described as follows: Partition coefficient estimated by HPLC method. In kind it is physicochemical. Conditions: estimated using an HPLC method; read-out: HPLC Log P.
Data set [3] can be described thus: Plasma concentrations after i.v. bolus of SD209 in pigs (in vivo conversion of prodrug). More on the design: species or system Yorkshire domestic swine. As to the method:
Data indicating conversion of the prodrug SD209 to the drug, SM256 once administered into circulation in vivo is represented in Table 5. The data in Table 5 id generated from intravenous administration of the prodrug, SD209, in pigs.
SD209 was injected intravenously at a dose of 0.5 mg/kg and plasma was seperated after blood sampling at different intervals. Following solid phase extraction of the plasma, residues were chromatographed on a supelcosil ABZ HPLC column and detected by positive ion electrospray MS/MS using a Sciex API 300. This combination provides a specific assay for both SD209 and SM256. The linear range of the assay for SM256 was from 1 ng/ml to 2000 ng/ml. Plasma concentration data for both pigs are provided below

Data set [4] in a line: Free solution electrophoretic mobility by capillary electrophoresis. In kind it is physicochemical. Conditions: for Electrophoretic Mobility: 400 V/cm, 25° C. As for the experimental part: To obtain a preliminary indication of the feasibility of transdermal iontophoretic delivery and the possible dependence on pH, the solution mobilities of the methyl and choline esters were evaluated using capillary electrophoresis. Free solution mobilities were determined using a capillary electrophoresis instrument equipped with a u.v. detector and a cationic amine capillary column of 57 cm total length, 50 cm length to detector, 370 μm o.d.,50 μm i.d. Buffers used were pH 4.5 acetate, pH 6.0 MES and pH 8.0 TRIS. All buffer concentrations were 50 mM. Elution was at 400 V/cm and 25° C., and detection was at 214 nm. Compounds SM192 and SD209 were examined. Structures are given in Scheme 16. For each compound, 2 mg/mL stock solutions were prepared and diluted 1:1 with the running buffer. Therefore, electrophoretic mobility of compound SD209 is about two-fold higher than that of compound SM192 at all pH values examined.

[5] abbreviates: pig 1, Time 10.0 hr, i.v. bolus 0.5 mg/kg of SD209.
The mark [6] stands for this setting: pig 1, Time 14.0 hr, i.v. bolus 0.5 mg/kg of SD209.
The mark [7] stands for this setting: pig 1, Time 24.0 hr, i.v. bolus 0.5 mg/kg of SD209.
The mark [8] stands for this setting: pig 2, Time 7.0 hr, i.v. bolus 0.5 mg/kg of SD209.
[9] abbreviates: pig 2, Time 10.0 hr, i.v. bolus 0.5 mg/kg of SD209.
[10] abbreviates: pig 2, Time 14.0 hr, i.v. bolus 0.5 mg/kg of SD209.
Setting [11] is: pig 2, Time 24.0 hr, i.v. bolus 0.5 mg/kg of SD209.

Turning to `Cc1cc(C)c(S(=O)(=O)NC(CNC(=O)c2ccc3c(cnn3CCCNc3ncc[nH]3)c2)C(=O)OCC[N+](C)(C)C)c(C)c1` (centres unmarked) [SD209], the “Surface Tension” value stood at 72.6 ± 0.06 dynes/cm in data set [1] (Concentration 0.0015 M); 72.4 ± 0.06 dynes/cm in data set [1] (Concentration 0.003 M); 72.2 ± 0.2 dynes/cm in data set [1] (Concentration 0.010 M); 67.4 ± 0.6 dynes/cm in data set [1] (Concentration 0.015 M); 65.5 ± 0.5 dynes/cm in data set [1] (Concentration 0.030 M); 61.9 ± 0.4 dynes/cm in data set [1] (Concentration 0.045 M). Also, the “Surface Tension” value in data set [1] (Concentration 0.054 M) amounted to 63.7 ± 0.4 dynes/cm; in data set [1] (Concentration 0.06 M) it was 61.2 ± 0.3 dynes/cm. In addition, the “critical micelle concentration (not attained up to)” value in data set [1] (no CMC attained even at the highest concentrations) was greater than 0.6 M. The chromatographic logP in data set [2] is 0.95. Also, the plasma conc. entry in data set [3] (pig 1, Time 1.0 hr, i.v. bolus 0.5 mg/kg of SD209) was “BQL”; in data set [3] (pig 1, Time 3.0 hr, i.v. bolus 0.5 mg/kg of SD209) it was “BQL”; in data set [3] (pig 1, Time 5.0 hr, i.v. bolus 0.5 mg/kg of SD209) it was “BQL”; in data set [3] (pig 1, Time 7.0 hr, i.v. bolus 0.5 mg/kg of SD209), “BQL”; in data set [3] (setting [5]), “BQL”; in data set [3] (setting [6]), “BQL”. Also, the plasma conc. result in data set [3] (setting [7]) was “BQL”; in data set [3] (pig 2, Time 1.0 hr, i.v. bolus 0.5 mg/kg of SD209), “BQL”; in data set [3] (pig 2, Time 2.0 hr, i.v. bolus 0.5 mg/kg of SD209) it was “BQL”; in data set [3] (pig 2, Time 3.0 hr, i.v. bolus 0.5 mg/kg of SD209), “BQL”; in data set [3] (pig 2, Time 5.0 hr, i.v. bolus 0.5 mg/kg of SD209), “BQL”; in data set [3] (setting [8]), “BQL”. Besides, the plasma conc. result in data set [3] (setting [9]), in data set [3] (setting [10]) and in data set [3] (setting [11]) was “BQL” throughout. Moreover, the concentration at 0 h is less than 2 ng/mL in data set [3] (pig, plasma, iv, 0.5 mg/kg, pig 1, Time 0.00 hr, i.v. bolus 0.5 mg/kg of SD209, read-out: plasma conc.) and less than 2 ng/mL in data set [3] (pig, plasma, iv, 0.5 mg/kg, pig 2, Time 0.00 hr, i.v. bolus 0.5 mg/kg of SD209, read-out: plasma conc.). For the same compound, the concentration at 0.1 h amounted to 60 ng/mL in data set [3] (pig, plasma, iv, 0.5 mg/kg, pig 1, Time 0.1 hr, i.v. bolus 0.5 mg/kg of SD209, read-out: plasma conc.) and 20 ng/mL in data set [3] (pig, plasma, iv, 0.5 mg/kg, pig 2, Time 0.1 hr, i.v. bolus 0.5 mg/kg of SD209, read-out: plasma conc.). Further, the concentration at 0.25 h was found to be 20 ng/mL in data set [3] (pig, plasma, iv, 0.5 mg/kg, pig 1, Time 0.25 hr, i.v. bolus 0.5 mg/kg of SD209, read-out: plasma conc.) and 3 ng/mL in data set [3] (pig, plasma, iv, 0.5 mg/kg, pig 2, Time 0.25 hr, i.v. bolus 0.5 mg/kg of SD209, read-out: plasma conc.). Moreover, the concentration at 0.5 h in data set [3] (pig, plasma, iv, 0.5 mg/kg, pig 2, Time 0.5 hr, i.v. bolus 0.5 mg/kg of SD209, read-out: plasma conc.) is less than 2 ng/mL. Besides, the “in vivo conversion of prodrug to SM256 in the circulation” value in data set [3] (pigs, i.v. 0.5 mg/kg) was “quantitatively converted to SM256”. Further, the “electrophoretic mobility relative to compound SM192” value in data set [4] (higher than SM192 at all pH values examined) is given as “about two-fold”. For the same compound, the “Electrophoretic Mobility” value is 3.2 (cm^2 /v/sec) × 10^-4 in data set [4] (pH 4.5 acetate buffer 50 mM), 3.0 (cm^2 /v/sec) × 10^-4 in data set [4] (pH 6.0 MES buffer 50 mM) and 2.3 (cm^2 /v/sec) × 10^-4 in data set [4] (pH 8.0 TRIS buffer 50 mM).

In the case of `COC(=O)C(CNC(=O)c1ccc2c(cnn2CCCNc2ncc[nH]2)c1)NS(=O)(=O)c1c(C)cc(C)cc1C` (centres unmarked) [SM192], the “Surface Tension” value is 73.0 ± 0.2 dynes/cm in data set [1] (Concentration 0.00015 M); 73.0 ± 0.2 dynes/cm in data set [1] (Concentration 0.0003 M); 72.3 ± 0.1 dynes/cm in data set [1] (Concentration 0.0006 M); 69.3 ± 0.6 dynes/cm in data set [1] (Concentration 0.001 M); 69.1 ± 0.6 dynes/cm in data set [1] (Concentration 0.0015 M); 61.7 ± 0.2 dynes/cm in data set [1] (Concentration 0.003 M). Further, the “Surface Tension” value in data set [1] (Concentration 0.006 M) is on record as 56.9 ± 0.4 dynes/cm; in data set [1] (Concentration 0.010 M) it was 53.5 ± 0.3 dynes/cm; in data set [1] (Concentration 0.015 M) it was 51.5 ± 0.1 dynes/cm; in data set [1] (Concentration 0.030 M), 50.4 ± 0.2 dynes/cm; in data set [1] (Concentration 0.045 M) it was 49.8 ± 0.4 dynes/cm; in data set [1] (Concentration 0.054 M), 50.0 ± 0.6 dynes/cm. Besides, the “Surface Tension” value in data set [1] (Concentration 0.06 M) came out at 49.5 ± 0.3 dynes/cm. Besides, in data set [1] (from surface tension vs concentration), the “critical micelle concentration (CMC)” value was ~ 16 mM and ~ 11 mg/mL. In data set [2], the chromatographic logP was 3.73. For the same compound, the “Electrophoretic Mobility” value in data set [4] (pH 4.5 acetate buffer 50 mM) was 1.7 (cm^2 /v/sec) × 10^-4; in data set [4] (pH 6.0 MES buffer 50 mM), 1.6 (cm^2 /v/sec) × 10^-4; in data set [4] (pH 8.0 TRIS buffer 50 mM), 1.1 (cm^2 /v/sec) × 10^-4.

In the case of `Cc1cc(C)c(S(=O)(=O)NC(CNC(=O)c2ccc3c(cnn3CCCNc3ncc[nH]3)c2)C(=O)O)c(C)c1` (centres unmarked) [SM256], the plasma conc. entry in data set [3] (setting [5]), in data set [3] (setting [6]), in data set [3] (setting [7]), in data set [3] (setting [8]), in data set [3] (setting [9]) and in data set [3] (setting [10]) was “BQL” throughout. The plasma conc. entry in data set [3] (setting [11]) is reported as “BQL”.
